According to the OligoGym collection:
“And” between values parts separate entries of the source, which are not always exact repeats. Equal entries are not always repeated. After the bases stand the sugars from the 5' end (letter, count) and the backbone: PS all phosphorothioate, else s phosphorothioate and o phosphodiester by linkage. Methylation of C is not given here. e = 2'-O-(2-methoxyethyl) (MOE); k = constrained ethyl (cEt); d = 2'-deoxy (DNA)

Target: SOD1
Details: ASO

Which target mRNA inhibition (A431, 0.12 µM) does the source give for “TGTTTAATGTTTATCA (sugars ekddddddddekekee, linkages s1 o1 s8 o3 s2)” here?
The target mRNA inhibition was 0%.

And the target mRNA inhibition (A431, 0.6 µM)?
The target mRNA inhibition was 13%.

What about the target mRNA inhibition (A431, 3 µM) of the same sequence?
The target mRNA inhibition was 31%.

And the target mRNA inhibition (A431, 15 µM)?
Its target mRNA inhibition is 49%.

With “GGAATCCATGCAGGCCT (sugars e3 k2 d7 k2 e3, PS)” as the sequence, how does the target mRNA inhibition (HepG2, 3 µM) read?
The target mRNA inhibition was 7%.

For “CAGTGTTTAATGTTTA (sugars kekeddddddddekek, linkages s1 o3 s8 o1 s2)”, which target mRNA inhibition (A431, 0.12 µM) is on record?
The target mRNA inhibition was 19%.

What about the target mRNA inhibition (A431, 0.6 µM) of the same sequence?
The target mRNA inhibition was 18%.

And the target mRNA inhibition (A431, 3 µM)?
The target mRNA inhibition was 36%.

What about the target mRNA inhibition (A431, 15 µM) of the same sequence?
Its target mRNA inhibition is 55%.

What about the target mRNA inhibition (HepG2, 0.222 µM) of the same sequence?
Its target mRNA inhibition is 50%.

What about the target mRNA inhibition (HepG2, 0.667 µM) of the same sequence?
The target mRNA inhibition was 67%.

And the target mRNA inhibition (HepG2, 2 µM)?
Its target mRNA inhibition is 81%.

And the target mRNA inhibition (HepG2, 6 µM)?
The target mRNA inhibition was 86%.

Which target mRNA inhibition (HepG2, 4 µM) does the source give for “TGGGCGATCCCAATTAC (sugars e2 k2 d9 k2 e2, PS)” here?
The target mRNA inhibition was 46%.

How did the target mRNA inhibition (HepG2, 4 µM) turn out when “TGCTCGAAATTGATGATGCC (sugars e5 d10 e5, PS)” was run?
The target mRNA inhibition was 20%.

With “CAGTGTGCGGCCAATGATGC (sugars e5 d10 e5, PS)” as the sequence, how does the target mRNA inhibition (HepG2, 5 µM) read?
Its target mRNA inhibition is 0%.

With “TCATGAACATGGAATCCATG (sugars e5 d10 e5, PS)” as the sequence, how does the target mRNA inhibition (HepG2, 5 µM) read?
The target mRNA inhibition was 24% and 19%.

With “TTCTCACTACAGGTACTTTA (sugars e5 d10 e5, PS)” as the sequence, how does the target mRNA inhibition (HepG2, 5 µM) read?
Its target mRNA inhibition is 28%.

For “TTCCCCACACCTTCACT (sugars e3 k2 d7 k2 e3, PS)”, which target mRNA inhibition (HepG2, 3 µM) is on record?
The target mRNA inhibition was 8%.

What does the source list for “ATGTTTATCAGGATACA (sugars eeeeddddddddkekee, linkages s1 o2 s9 o2 s2)”?
target mRNA inhibition (A431, 0.062 µM): 12%; target mRNA inhibition (A431, 0.185 µM): 19%; target mRNA inhibition (A431, 0.556 µM): 29%; target mRNA inhibition (A431, 1.667 µM): 38%; target mRNA inhibition (A431, 5 µM): 51% and 50%; target mRNA inhibition (A431, 15 µM): 61%; target mRNA inhibition (SH-SY5Y, 0.062 µM): 15%; target mRNA inhibition (SH-SY5Y, 0.185 µM): 27%; target mRNA inhibition (SH-SY5Y, 0.556 µM): 52%; target mRNA inhibition (SH-SY5Y, 1.667 µM): 63%; target mRNA inhibition (SH-SY5Y, 5 µM): 79%; target mRNA inhibition (SH-SY5Y, 15 µM): 92%

For “GACTACGACGCAAACCAGCA (sugars e5 d10 e5, PS)”, which target mRNA inhibition (HepG2, 4 µM) is on record?
The target mRNA inhibition was 40%.

For “GTCTGGCAAAATACAGG (sugars e2 k2 d9 k2 e2, PS)”, which target mRNA inhibition (HepG2, 5 µM) is on record?
Its target mRNA inhibition is 38%.

What does the source list for “GTTTAATGTTTATCAGGA (sugars e5 d8 e5, linkages s1 o3 s9 o2 s2)”?
target mRNA inhibition (A431, 0.12 µM): 15%; target mRNA inhibition (A431, 0.6 µM): 51%; target mRNA inhibition (A431, 3 µM): 68%; target mRNA inhibition (A431, 15 µM): 84%; target mRNA inhibition (HepG2, 0.222 µM): 45%; target mRNA inhibition (HepG2, 0.667 µM): 73%; target mRNA inhibition (HepG2, 2 µM): 78%; target mRNA inhibition (HepG2, 6 µM): 87%

With “AGTCTGGCAAAATACAG (sugars e3 k2 d7 k2 e3, PS)” as the sequence, how does the target mRNA inhibition (HepG2, 3 µM) read?
The target mRNA inhibition was 1%.

Which target mRNA inhibition (HepG2, 3 µM) does the source give for “AGAGGATTAAAGTGAGG (sugars e3 k2 d7 k2 e3, PS)” here?
Its target mRNA inhibition is 16%.

With “TCAGGATACATTTCTACAGC (sugars e5 d10 e5, linkages s1 o3 s11 o3 s1)” as the sequence, how does the target mRNA inhibition (A431, 0.12 µM) read?
Its target mRNA inhibition is 9%.

What about the target mRNA inhibition (A431, 0.6 µM) of the same sequence?
Its target mRNA inhibition is 8%.

And the target mRNA inhibition (A431, 3 µM)?
Its target mRNA inhibition is 21%.

What about the target mRNA inhibition (A431, 15 µM) of the same sequence?
Its target mRNA inhibition is 49%.

And the target mRNA inhibition (HepG2, 0.222 µM)?
The target mRNA inhibition was 25%.

What about the target mRNA inhibition (HepG2, 0.667 µM) of the same sequence?
Its target mRNA inhibition is 50%.

What about the target mRNA inhibition (HepG2, 2 µM) of the same sequence?
Its target mRNA inhibition is 92%.

What about the target mRNA inhibition (HepG2, 6 µM) of the same sequence?
Its target mRNA inhibition is 73%.

Which results are given for “TAATGTTTATCAGGATA (sugars e2 k2 d9 k2 e2, PS)”?
target mRNA inhibition (HepG2, 0.1875 µM): 28%; target mRNA inhibition (HepG2, 0.75 µM): 66%; target mRNA inhibition (HepG2, 3 µM): 91%; target mRNA inhibition (HepG2, 4 µM): 85% and 82%; target mRNA inhibition (HepG2, 12 µM): 93% and 98%

What does the source list for “ACATTTCTACAGCTAG (sugars ekddddddddekekee, linkages s1 o1 s8 o3 s2)”?
target mRNA inhibition (A431, 0.12 µM): 1%; target mRNA inhibition (A431, 0.6 µM): 27%; target mRNA inhibition (A431, 3 µM): 32%; target mRNA inhibition (A431, 15 µM): 47%

Which target mRNA inhibition (HepG2, 0.1875 µM) does the source give for “GCAGGATAACAGATGAG (sugars e3 k2 d7 k2 e3, PS)” here?
The target mRNA inhibition was 39%.

What about the target mRNA inhibition (HepG2, 0.75 µM) of the same sequence?
Its target mRNA inhibition is 60%.

And the target mRNA inhibition (HepG2, 3 µM)?
Its target mRNA inhibition is 58% and 80%.

What about the target mRNA inhibition (HepG2, 12 µM) of the same sequence?
Its target mRNA inhibition is 90%.

Which target mRNA inhibition (HepG2, 5 µM) does the source give for “TTTCTCACTACAGGTAC (sugars e2 k2 d8 k2 e3, PS)” here?
The target mRNA inhibition was 35%.

“CAGTCCTTTAATGCTTCCCC (sugars e5 d10 e5, PS)” was tested. Which target mRNA inhibition (HepG2, 5 µM) did it give?
The target mRNA inhibition was 51% and 40%.

“AAGTGCCATACAGGGTT (sugars e2 k2 d8 k2 e3, PS)” was tested. Which target mRNA inhibition (HepG2, 5 µM) did it give?
The target mRNA inhibition was 15%.

Which target mRNA inhibition (HepG2, 3 µM) does the source give for “TTCCACCTTTGCCCAAG (sugars e3 k2 d7 k2 e3, PS)” here?
The target mRNA inhibition was 87%.

Which target mRNA inhibition (HepG2, 3 µM) does the source give for “CAAGGGAATGTTTATTG (sugars e3 k2 d7 k2 e3, PS)” here?
The target mRNA inhibition was 19%.

How did the target mRNA inhibition (HepG2, 3 µM) turn out when “GTCATTGAAACAGACAT (sugars e3 k2 d7 k2 e3, PS)” was run?
The target mRNA inhibition was 23%.

“TTCCTTCTGCTCGAAAT (sugars e3 k2 d7 k2 e3, PS)” was tested. Which target mRNA inhibition (HepG2, 3 µM) did it give?
The target mRNA inhibition was 13%.

With “CCAAGTGATCATAAATC (sugars e2 k2 d9 k2 e2, PS)” as the sequence, how does the target mRNA inhibition (HepG2, 5 µM) read?
Its target mRNA inhibition is 48%.
